From PMC8073907, “Peptide targeting of lysophosphatidylinositol-sensing GPR55 for osteoclastogenesis tuning” (Cell Communication and Signaling : CCS, 2021)

Columns and labels:
Format in all cases: cell-based, murine
[1] = test system: endogenous GPR55 in RAW264.7 cells; assay: Intracellular Ca2+ assay in siRNA-interfered RAW264.7 cells; details: si-NT cells, 72 h of interference; 10 µM 16:0 LPI, within the first minute
Description: (§1) For transient interference of Gpr55, RAW264.7 cells were plated at 6 × 10^5 cells/well in six-well plates in growth medium without antibiotics. Twenty-four hours later, the cells were transfected with 250 pmol/well non-targeting small-interfering (si)RNAs (si-NT; siGENOME siRNA Pool #2; D-001206-14; Dharmacon, Chicago, IL, USA) or Gpr55-specific siRNAs (si-GPR55; siGENOME mouse GPR55 SMART pool; M-043590-01; Dharmacon) using Lipofectamine LTX and Plus Reagent, according to the manufacturer instructions. Twenty-four hours later, the cells were plated for the different assays or for RNA extraction. The efficiency of interference was monitored by real-time PCR after 72 h of interference, using the primers listed in the Additional file 1: Table S1. β2-microglobulin was followed as a housekeeping gene.
After 48 h of siRNA treatments, the RAW264.7 cells were detached with 600 μM EDTA in PBS, and plated at a density of 8 × 10^4 cells/well in 96-well plates. […] All the subsequent incubation steps were performed at 37 °C within the Fluoroskan Ascent FL (Thermo Fisher Scientific, Waltham, MA USA) and the fluorescence recorded with an Ex 485/ Em 520 every 3 s. The baseline fluorescence was monitored for 5 min, then 50 μL assay buffer (0.01% faf-BSA, 20 mM HEPES in HBSS^++) was added without or with 10 μM 16:0 LPI, and fluorescence was recorded for a further 5 min. […]

RAW264.7 cells = assay: Filopodium formation / actin morphology in siRNA-interfered RAW264.7 cells (confocal microscopy); details: 10 µM soybean LPI
Description: as §1
Twenty-four hours after plating the RAW264.7 cells at a density of 1.2 × 10^6 cells/well in six-well plates, or 2.5 × 10^5 cells/well in 24-well plates on coverslips, the cells were serum deprived for 2 h and then stimulated while adhered, with LPI in the assay buffer (0.1% faf-BSA, 20 mM HEPES in HBSS^++). […] Finally, the fixed cells were stained with 33 nM Alexa546-labelled phalloidin for 1 h at room temperature, washed three times (10 min each) with cytoskeleton buffer, suspended in PBS with 3% BSA, and analysed by FACS (FACSCalibur or FACSAria III; Becton Dickinson, Franklin Lakes, NJ). […]

[2] = test system: osteoclasts derived from RAW264.7 cells; assay: Osteoclast functional assay (bone resorption on bovine cortical bone slices); details: 15 ng/mL RANKL, 7 days
Description: RAW264.7 cells were plated in differentiation medium at a density of 1250 cells/100 µL on 0.2-mm-thick bovine cortical bone slices (BoneSlices.com, Jelling, Denmark) in 96-well plates. Six hours later, 100 µL differentiation medium with RANKL (15 ng/mL, final concentration) was added, in the presence of a carrier or in combination with the GPR55 modulators. The media with the different compounds were replaced every 48 h, for a total of 7 days. At the end of this period, the cells were detached with a 10% bleach solution, and the resorption excavations were visualised by using Toluidine Blue staining (Sigma-Aldrich). Images of the resorption areas were obtained under the microscope (SW380T; Swift Optical Instruments, Inc., TX, USA) using the 10 × objective, and acquired with a digital camera (Swiftcam SC1003; Swift Optical Instruments, Inc.). The total eroded surface underwent blinded quantification using ImageJ (NIH), and was subdivided into pit and trench surfaces. Pits were characterised as round excavations with well-defined edges where the ratio between length and width was < 2.0. Trenches were defined as elongated excavations with well-defined edges whose length was at least twice the wide, and with clear signs of continued resorption. The prevalence of trenches was calculated as a proportion (%) of the trench surface relative to the total eroded surface.

lysophosphatidylinositol [LPI]
mean increase of intracellular Ca2+ over basal levels [1]: ~ 40 nM
actin cytoskeleton reorganisation, si-GPR55 (RAW264.7 cells; si-GPR55 cells): no significant signs of actin cytoskeleton reorganisation
numbers of filopodia, si-NT (RAW264.7 cells; si-NT cells): time-dependent increase in the numbers of filopodia
effect on relative trench contribution ([2]; 0.5 µM ML-191 or 1 µM 18:0 LPI): did not affect the relative contributions of the trenches
increase of total resorbing activity induced by RANKL ([2]; 1 µM 18:0 LPI, versus RANKL + 0.004% faf-BSA): 54%
